Source: paper PMC10279527, “Structural basis of metabolite transport by the chloroplast outer envelope channel OEP21” (Nature Structural & Molecular Biology, 2023)
“And” between values parts separate entries of the source, which are not always exact repeats. Equal values may be shown once. Read-outs that look alike come from different tables or passages of the source.

Tests used:
[1] = target: T1, OEP21 variants (single point mutations, ΔL5) (Pisum sativum, UniProt Q9SM57, R84A); assay: Fluorescence polarization binding of MANT-ATP to OEP21 variants; design: species or system garden pea; conditions: OEP21 variant R84A; for Kd: unit inferred;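 for all read-outs here: KD obtained by fitting fluorescence polarization data to a one-site binding model, each experiment run in triplicate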
T1 construct: made in house; host or cells: Escherichia coli BL21(DE3) (described for OEP21)

[2] = target: T2, OEP21 variants (single point mutations, ΔL5) (Pisum sativum, UniProt Q9SM57, N164R/R66A); assay: as above; design: species or system garden pea; conditions: OEP21 variant R66A/N164R; for Kd: unit inferred
T2 construct: made in house; host or cells: Escherichia coli BL21(DE3) (described for OEP21)

[3] = target: T3, OEP21 variants (single point mutations, ΔL5) (Pisum sativum, UniProt Q9SM57, R66W); assay: as above; design: species or system garden pea; conditions: OEP21 variant R66W; for Kd: unit inferred
T3 construct: made in house; host or cells: Escherichia coli BL21(DE3) (described for OEP21)

[4] = target: OEP21 variants (single point mutations, ΔL5); assay: as above; design: species or system garden pea; conditions: OEP21 variant dL5; for Kd: unit inferred
[5] = target: T4, OEP21 wt (Pisum sativum, UniProt Q9SM57); assay: Fluorescence polarization (FP) binding of MANT-ATP (or MANT-GMPPNP) to OEP21-WT, also at varied NaCl and MgCl2; design: species or system garden pea
T4 construct: made in house
Experimental: FP assays were performed on a spectrofluorometer FP-8300 (Jasco) equipped with a water bath cooling system MCM-100 (Jasco). […] A buffer containing no EDTA was used when MgCl2 was present. […] KD values were derived by fitting the data to a one-site binding model. […] All FP experiments were performed as triplicates.

[6] = target: OEP21 (Pisum sativum, UniProt Q9SM57); assay: Amide hydrogen exchange NMR (CLEANEX) of OEP21 L5; design: made in house; species or system garden pea; conditions: 2 mM ATP or 5 mM GAP; 303 K, pH 6.0
[7] = individual determinations, read-out: KD1-KD3

Q: How did the Kd [1, 7] turn out when “2′-(or-3′)-O-(N-methylanthraniloyl) adenosine 5′-triphosphate [Mant-ATP]” was run?
A: The Kd was 264 nM and 249 nM and 350 nM.

Q: What about the “rel KD1-KD3” value ([1]; relative to mean KD of wt) of the same compound?
A: The value was 1.451 and 1.368 and 1.923.

Q: And the Kd ([1]; read-out: mean KD)?
A: Its Kd is 288 nM.

Q: And the Kd [2, 7]?
A: The Kd was 172 nM and 184 nM and 211 nM.

Q: And the “rel KD1-KD3” value ([2]; relative to mean KD of wt)?
A: Its value is 1.011 and 1.159.

Q: What about the Kd ([2]; read-out: mean KD) of the same compound?
A: The Kd was 189 nM.

Q: And the Kd [3, 7]?
A: The Kd was 275 nM and 175 nM and 227 nM.

Q: And the “rel KD1-KD3” value ([3]; relative to mean KD of wt)?
A: The value was 1.511 and 1.247.

Q: What about the Kd ([3]; read-out: mean KD) of the same compound?
A: Its Kd is 226 nM.

Q: And the Kd [4, 7]?
A: Its Kd is 214 nM and 204 nM and 297 nM.

Q: And the “rel KD1-KD3” value ([4]; relative to mean KD of wt)?
A: The value was 1.176 and 1.121 and 1.632.

Q: What about the Kd ([4]; read-out: mean KD) of the same compound?
A: The Kd was 238 nM.

Q: And the Kd ([5]; MgCl2 0 mM, individual determinations, read-out: KD1-KD3)?
A: The Kd was 184 nM and 169 nM and 193 nM.

Q: What about the Kd ([5]; MgCl2 0 mM, read-out: mean KD) of the same compound?
A: Its Kd is 182 nM.

Q: What about the “rel KD1-KD3” value ([5]; MgCl2 0 mM, relative to mean KD at 0 mM MgCl2) of the same compound?
A: Its value is 1.011 and 0.9286 and 1.06.

Q: And the Kd ([5]; MgCl2 1 mM, individual determinations, read-out: KD1-KD3)?
A: The Kd was 442 nM and 659 nM and 1020 nM.

Q: And the Kd ([5]; MgCl2 1 mM, read-out: mean KD)?
A: Its Kd is 706 nM.

Q: What about the Kd ([5]; MgCl2 10 mM, individual determinations, read-out: KD1-KD3) of the same compound?
A: The Kd was 1170 nM and 2680 nM and 2400 nM.

Q: What about the Kd ([5]; MgCl2 10 mM, read-out: mean KD) of the same compound?
A: Its Kd is 2080 nM.

Q: And the Kd ([5]; MgCl2 50 mM, individual determinations, read-out: KD1-KD3)?
A: Its Kd is 6430 nM and 8880 nM and 8630 nM.

Q: What about the Kd ([5]; MgCl2 50 mM, read-out: mean KD) of the same compound?
A: The Kd was 7980 nM.

Q: What about the “rel KD1-KD3” value ([5]; MgCl2 50 mM, relative to mean KD at 0 mM MgCl2) of the same compound?
A: Its value is 35.3077 and 48.8077 and 47.4286.

Q: What about the Kd ([5]; NaCl 0 M, individual determinations, nM printed only in the MgCl2 head (r11) of this sheet, read-out: KD1-KD3) of the same compound?
A: The Kd was 184 nM and 169 nM and 193 nM.

Q: What about the Kd ([5]; NaCl 0 M, read-out: mean KD) of the same compound?
A: Its Kd is 182 nM.

Q: What about the “rel KD1-KD3” value ([5]; NaCl 0 M, relative to mean KD at 0 M NaCl) of the same compound?
A: Its value is 1.011 and 0.9286 and 1.06.

Q: What about the Kd ([5]; NaCl 0.5 M, individual determinations, nM, read-out: KD1-KD3) of the same compound?
A: The Kd was 241 nM and 192 nM and 264 nM.

Q: What about the Kd ([5]; NaCl 0.5 M, read-out: mean KD) of the same compound?
A: The Kd was 232 nM.

Q: What about the “rel KD1-KD3” value ([5]; NaCl 0.5 M, relative to mean KD at 0 M NaCl) of the same compound?
A: The value was 1.324 and 1.055 and 1.451.

Q: What about the Kd ([5]; NaCl 1 M, individual determinations, nM, read-out: KD1-KD3) of the same compound?
A: The Kd was 2600 nM and 2460 nM and 3130 nM.

Q: What about the Kd ([5]; NaCl 1 M, read-out: mean KD) of the same compound?
A: Its Kd is 2730 nM.

Q: What about the “rel KD1-KD3” value ([5]; NaCl 1 M, relative to mean KD at 0 M NaCl) of the same compound?
A: Its value is 14.2912 and 13.5385 and 17.1923.

Q: What about the Kd ([5]; NaCl 2 M, individual determinations, nM, read-out: KD1-KD3) of the same compound?
A: The Kd was 18.4 µM and 21.4 µM (2×).

Q: What about the Kd ([5]; NaCl 2 M, read-out: mean KD) of the same compound?
A: The Kd was 20400 nM.

Q: And the “rel KD1-KD3” value ([5]; NaCl 2 M, relative to mean KD at 0 M NaCl)?
A: The value was 101.319 and 117.56 and 117.418.

Q: And the Kd ([5]; OEP21 wt, individual determinations, unit inferred, read-out: KD1-KD3)?
A: The Kd was 184 nM and 169 nM and 193 nM.

Q: And the “rel KD1-KD3” value ([5]; OEP21 wt, relative to mean KD of wt)?
A: Its value is 1.011 and 0.9286 and 1.06.

Q: And the Kd ([5]; OEP21 wt, unit inferred, read-out: mean KD)?
A: Its Kd is 182 nM.

Q: How did the “amide hydrogen exchange rates in L5 in the complex (in words)” value [6] turn out when O=C[C@H](O)COP(=O)(O)O [GAP, D-glyceraldehyde-3-phosphate] was run?
A: The value was “reduced”.
